Laboratory results taken from patent US8664226B2, “Compound having 3-heteroarylpyrimidin-4-(3H)-one structure and pharmaceutical preparation containing same” (Kowa Company, Ltd., priority 2009, dated 2014).

Tests used:
[1] = target: T1, angiotensin II type 1 receptor (Oryctolagus cuniculus, UniProt P34976); assay: Angiotensin II antagonistic activity in isolated rabbit blood vessels; details: angiotensin II (10 nM)-induced contraction of rabbit thoracic aorta ring
T1 construct: By using a specimen of isolated rabbit blood vessels; from tissue; host or cells: rabbit thoracic aorta ring (New Zealand White, male)
T1 sequence (P34976 1-359): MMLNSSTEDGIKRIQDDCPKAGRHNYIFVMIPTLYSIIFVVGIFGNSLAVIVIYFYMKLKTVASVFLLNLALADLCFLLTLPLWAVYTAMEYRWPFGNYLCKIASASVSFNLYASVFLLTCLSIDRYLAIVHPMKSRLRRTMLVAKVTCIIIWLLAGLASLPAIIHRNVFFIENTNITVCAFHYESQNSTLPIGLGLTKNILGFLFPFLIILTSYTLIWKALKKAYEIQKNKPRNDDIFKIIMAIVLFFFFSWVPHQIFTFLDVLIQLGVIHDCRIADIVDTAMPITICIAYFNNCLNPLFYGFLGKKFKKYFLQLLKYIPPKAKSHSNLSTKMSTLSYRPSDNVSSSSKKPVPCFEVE
Protocol: By using a specimen of isolated rabbit blood vessels, antagonistic activity of the compounds of the invention against angiotensin II type 1 receptor was estimated from a dose-response curve of angiotensin II-induced blood vessel contraction.
During the measurement, the inside temperature of the magnus bath was maintained at 37° C. and the bath was continuously ventilated with a sufficient amount of mixed gas (95% O2 and 5% CO2). The angiotensin II-induced contraction was converted into a relative value (%) that is based on the angiotensin II (10 nM)-induced contraction in the absence of the compounds of each example. From the concentration-response curve obtained therefrom, 50% inhibition concentration (IC50 value) was calculated by using SAS Preclinical Package Ver5.0 (trade name, manufactured by SAS institute Japan Co., Tokyo, Japan), which is a statistical analysis program.

[2] = target: T2, human PPARγ2 (Homo sapiens, UniProt P37231); assay: PPARγ activation activity, Gal4 chimera luciferase transfection assay using COS7 cells; format: cell-based; details: for EC50 / Emax: COS7 cells; for EC50: Gal4-human PPARγ2 LBD chimera, luciferase reporter, 16 hours, read-out: EC50; for Emax: COS-7, 16 h, maximum activity strength relative to the maximum activity of rosiglitazone, read-out: % MAX vs Rosiglitazone; for maximum activity compared with telmisartan: maximum PPARγ activity, telmisartan 30 to 50% of rosiglitazone under the same condition
T2 construct: the amino acids 182 to 505 of human PPARγ2; expressed in transfected cells; host or cells: COS7 cells
T2 sequence (P37231 182-505): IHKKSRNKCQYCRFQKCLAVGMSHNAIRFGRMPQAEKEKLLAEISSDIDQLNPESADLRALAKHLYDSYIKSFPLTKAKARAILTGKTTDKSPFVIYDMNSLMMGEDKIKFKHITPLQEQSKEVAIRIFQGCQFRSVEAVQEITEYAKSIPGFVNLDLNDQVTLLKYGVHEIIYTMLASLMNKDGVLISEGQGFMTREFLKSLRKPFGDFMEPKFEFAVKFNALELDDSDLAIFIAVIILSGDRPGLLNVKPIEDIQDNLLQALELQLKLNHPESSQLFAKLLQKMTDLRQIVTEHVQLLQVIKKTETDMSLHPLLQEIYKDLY
T2 sequence (P04386 1-147 partner limits assumed): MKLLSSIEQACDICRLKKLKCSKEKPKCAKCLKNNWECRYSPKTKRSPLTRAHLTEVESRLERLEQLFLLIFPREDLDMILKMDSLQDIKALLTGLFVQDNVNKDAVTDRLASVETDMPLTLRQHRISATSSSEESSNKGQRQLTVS
Protocol: The agonistic activity of the compounds of the invention on PPARγ was measured based on the transfection assay using COS7 cells (DS Pharma Biomedical Co., Ltd., Osaka, Japan), which are the cell line derived from the kidney of the African green monkey. COS7 cells were cultured under 5% CO2 concentration, and DMEM medium containing 10% fetal bovine serum, glutamic acid, and antibiotics was used as a medium.
As an expression vector, a chimera in which DNA binding domain of Gal4, which is a yeast transcription factor, and ligand binding domain of human PPAR^γ2 are fused, i.e., a fused product between the amino acids 1 to 147 of Gal4 transcription factor and the amino acids 182 to 505 of human PPARγ2, was used. Furthermore, as a reporter vector, a firefly luciferase containing five copies of Gal4 recognition sequence in the promoter region was used. Plasmid transfection to the cells was performed according to a method which uses jetPEI (trade name, manufactured by Funakoshi Co., Ltd., Tokyo, Japan). Furthermore, β-galactosidase expression vector was employed as an internal standard.
After the transfection of the cells, the medium was replaced with a DMEM medium (containing 1% serum) added with the compound, and the cells were further cultured for 16 hours. After that, the luciferase activity and β-galactosidase activity in the cell lysis solution were measured.
For the present test, dimethyl sulfoxide (DMSO) was used for dissolution and dilution of the test compounds, and during the cell treatment, the DMSO concentration in DMEM medium (containing 1% serum) was adjusted to 0.1%. As a positive compound, rosiglitazone (trade name, manufactured by ALEXIS Corporation, Switzerland) was used. […] The 50% effective concentration of the test compound (EC50, 50% effect concentration) was calculated by using SAS Preclinical Package Ver5.0 (trade name, manufactured by SAS institute Japan Co., Tokyo, Japan), which is a statistical analysis program.

IC50 [1] [nM]	EC50 [2] [nM]	Emax [2] [%]	SMILES	maximum activity compared with telmisartan [2]
431	1520	54.6	CCCCc1nc(C)n(-c2ccc(Cl)cn2)c(=O)c1Cc1ccc(-c2ccccc2-c2nnn[nH]2)cc1 [Example 7, 5-{[2′-(1H-tetrazol-5-yl)biphenyl-4-yl]methyl}-6-butyl-3-(5-chloropyridin-2-yl)-2-methylpyrimidin-4(3H)-one]	the same or greater than that of telmisartan
395	880	27.7	CCCCc1nc(C)n(-c2cccc(Br)n2)c(=O)c1Cc1ccc(-c2ccccc2-c2nnn[nH]2)cc1 [Example 8, 5-{[2′-(1H-tetrazol-5-yl)biphenyl-4-yl]methyl}-3-(6-bromopyridin-2-yl)-6-butyl-2-methylpyrimidin-4(3H)-one]	–
181	3890	–	CCCCc1nc(C)n(-c2cc(C(F)(F)F)ccn2)c(=O)c1Cc1ccc(-c2ccccc2-c2nnn[nH]2)cc1 [Example 10, 5-{[2′-(1H-tetrazol-5-yl)biphenyl-4-yl]methyl}-6-butyl-2-methyl-3-[4-(trifluoromethyl)pyridin-2-yl]pyrimidin-4(3H)-one]	–
981	1300	48.6	CCCCc1nc(C)n(-c2ccc(C(F)(F)F)cn2)c(=O)c1Cc1ccc(-c2ccccc2-c2nnn[nH]2)cc1 [Example 11, 5-{[2′-(1H-tetrazol-5-yl)biphenyl-4-yl]methyl}-6-butyl-2-methyl-3-[5-(trifluoromethyl)pyridin-2-yl]pyrimidin-4(3H)-one]	the same or greater than that of telmisartan
26	170	–	CCCCc1nc(C)n(-c2ncc(C(F)(F)F)cc2Cl)c(=O)c1Cc1ccc(-c2ccccc2-c2nnn[nH]2)cc1 [Example 13, 5-{[2′-(1H-tetrazol-5-yl)biphenyl-4-yl]methyl}-6-butyl-3-[3-chloro-5-(trifluoromethyl)pyridin-2-yl]-2-methylpyrimidin-4(3H)-one]	–
14	2410	35.5	CCCCc1nc(C)n(-c2ncc(Br)cn2)c(=O)c1Cc1ccc(-c2ccccc2-c2nnn[nH]2)cc1 [Example 16, 5-{[2′-(1H-tetrazol-5-yl)biphenyl-4-yl]methyl}-3-(5-bromopyrimidin-2-yl)-6-butyl-2-methylpyrimidin-4 (3H)-one]	–
396	2550	–	CCCCc1nc(C)n(-c2ncc(OCc3ccccc3)cn2)c(=O)c1Cc1ccc(-c2ccccc2-c2nnn[nH]2)cc1 [Example 19, 5-{[2′-(1H-tetrazol-5-yl)biphenyl-4-yl]methyl}-3-[5-(benzyloxy)pyrimidin-2-yl]-6-butyl-2-methylpyrimidin-4 (3H)-one]	–
17	1590	–	CCCCc1nc(C)n(-c2ncc(OCC)cn2)c(=O)c1Cc1ccc(-c2ccccc2-c2nnn[nH]2)cc1 [Example 21, 5-{[2′-(1H-tetrazol-5-yl)biphenyl-4-yl]methyl}-6-butyl-3-(5-ethoxypyrimidin-2-yl)-2-methylpyrimidin-4 (3H)-one]	–
155	590	22.8	CCCCc1nc(C)n(-c2ncc(OCCC)cn2)c(=O)c1Cc1ccc(-c2ccccc2-c2nnn[nH]2)cc1 [Example 22, 5-{[2′-(1H-tetrazol-5-yl)biphenyl-4-yl]methyl}-6-butyl-2-methyl-3-(5-propoxypyrimidin-2-yl)pyrimidin-4 (3H)-one]	–
22	890	–	CCCCc1nc(C)n(-c2ncc(OC(C)C)cn2)c(=O)c1Cc1ccc(-c2ccccc2-c2nnn[nH]2)cc1 [Example 23, 5-{[2′-(1H-tetrazol-5-yl)biphenyl-4-yl]methyl}-6-butyl-3-(5-isopropoxypyrimidin-2-yl)-2-methylpyrimidin-4 (3H)-one]	–
24	3890	–	CCCCc1nc(C)n(-c2ncc(OCCSC)cn2)c(=O)c1Cc1ccc(-c2ccccc2-c2nnn[nH]2)cc1 [Example 26, 5-{[2′-(1H-tetrazol-5-yl)biphenyl-4-yl]methyl}-6-butyl-2-methyl-3-{5-[2-(methylthio)ethoxy]pyrimidin-2-yl}pyrimidin-4 (3H)-one]	–
49	1230	28.9	CCCCc1nc(C)n(-c2ncc(OC3CCCCC3)cn2)c(=O)c1Cc1ccc(-c2ccccc2-c2nnn[nH]2)cc1 [Example 28, 5-{[2′-(1H-tetrazol-5-yl)biphenyl-4-yl]methyl}-6-butyl-3-[5-(cyclohexyloxy)pyrimidin-2-yl]-2-methylpyrimidin-4 (3H)-one]	–
627	3770	–	CCCCc1nc(C)n(-c2ncc(OCCc3ccc(CC)cn3)cn2)c(=O)c1Cc1ccc(-c2ccccc2-c2nnn[nH]2)cc1 [Example 36, 5-{[2′-(1H-tetrazol-5-yl)biphenyl-4-yl]methyl}-6-butyl-3-{5-[2-(5-ethylpyridin-2-yl)ethoxy]pyrimidin-2-yl}-2-methylpyrimidin-4 (3H)-one]	–
2.7	4220	–	CCCCc1nc(C)n(-c2ncc(OC(C(=O)O)c3ccccc3)cn2)c(=O)c1Cc1ccc(-c2ccccc2-c2nnn[nH]2)cc1 (stereo not drawn) [Example 42, 2-{2-{5-{[2′-(1H-tetrazol-5-yl)biphenyl-4-yl]methyl}-4-butyl-2-methyl-6-oxopyrimidin-1(6H)-yl}pyrimidin-5-yloxy}-2-phenylacetic acid]	–
2.6	80	–	CCCCc1nc(C)n(-c2ncc(OCCCC(N)=O)cn2)c(=O)c1Cc1ccc(-c2ccccc2-c2nnn[nH]2)cc1 [Example 47, 4-{2-{5-{[2′-(1H-tetrazol-5-yl)biphenyl-4-yl]methyl}-4-butyl-2-methyl-6-oxopyrimidin-1(6H)-yl}pyrimidin-5-yloxy}butanamide]	–
12	70	–	CCCCc1nc(C)n(-c2ncc(OCCCC(=O)NCC)cn2)c(=O)c1Cc1ccc(-c2ccccc2-c2nnn[nH]2)cc1 [Example 49, 4-{2-{5-{[2′-(1H-tetrazol-5-yl)biphenyl-4-yl]methyl}-4-butyl-2-methyl-6-oxopyrimidin-1(6H)-yl}pyrimidin-5-yloxy}-N-ethylbutanamide]	–
8.3	140	–	CCCCc1nc(C)n(-c2ncc(OCCCC(=O)N(CC)CC)cn2)c(=O)c1Cc1ccc(-c2ccccc2-c2nnn[nH]2)cc1 [Example 52, 4-{2-{5-{[2′-(1H-tetrazol-5-yl)biphenyl-4-yl]methyl}-4-butyl-2-methyl-6-oxopyrimidin-1(6H)-yl}pyrimidin-5-yloxy}-N,N-diethylbutanamide]	–
352	1910	–	CCCCc1nc(C)n(-c2ncc(OCCCNS(=O)(=O)C(F)(F)F)cn2)c(=O)c1Cc1ccc(-c2ccccc2-c2nnn[nH]2)cc1 [Example 58, N-{3-{2-{5-{[2′-(1H-tetrazol-5-yl)biphenyl-4-yl]methyl}-4-butyl-2-methyl-6-oxopyrimidin-1 (6H)-yl}pyrimidin-5-yloxy}propyl}-1,1,1-trifluoromethane sulfonamide]	–
13	1240	–	CCCCc1nc(C)n(-c2cc(OC)nc(OC)n2)c(=O)c1Cc1ccc(-c2ccccc2-c2nnn[nH]2)cc1 [Example 59]	–

SMILES	IC50 [1] [nM]	EC50 [2] [nM]	Emax [2] [%]	maximum activity compared with telmisartan [2]
CCCCOc1cnc(-n2c(C)nc(CCCC)c(Cc3ccc(-c4ccccc4-c4nnn[nH]4)cc3)c2=O)nc1 [Example 24, 5-{[2′-(1H-tetrazol-5-yl)biphenyl-4-yl]methyl}-3-(5-butoxypyrimidin-2-yl)-6-butyl-2-methylpyrimidin-4 (3H)-one]	141	860	–	–
